In ChEMBL document CHEMBL1201862, “PubChem BioAssay data set” (2004):
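1) Cells in 96-well plates. 2) Compound, 48 h, 5 concentrations. 3) Linear interpolation between surrounding doses. 4) Unreached endpoint = highest concentration. At the GI50, growth is halved.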 Activity calls are given as the source filed them. Rule as the data show it: active = GI50 up to about 1.1 µM and inactive = higher.

What was measured:
Experiment in all cases: NCI anticancer screen, dose series, 48 h
CCRF-CEM = system: CCRF-CEM
SF-268 = system: SF-268
COLO 205 = system: COLO 205
HL-60 = system: HL-60
Hs-578T = system: Hs-578T
MCF7 = system: MCF7
SK-MEL-2 = system: SK-MEL-2
T47D = system: T47D
NCI-H460 = system: NCI-H460
OVCAR-3 = system: OVCAR-3
LOX IMVI = system: LOX IMVI
HT-29 = system: HT-29
SF-539 = system: SF-539
IGROV-1 = system: IGROV-1
M14 = system: M14
HOP-92 = system: HOP-92
OVCAR-5 = system: OVCAR-5
UACC-257 = system: UACC-257
BT-549 = system: BT-549

Measured: GI50

Nc1nc(SCC(=O)O)nc(O)c1N
inactive: CCRF-CEM 1.32 µM | SF-268 > 100 µM | COLO 205 > 100 µM | HL-60 56.1 µM | Hs-578T > 100 µM | MCF7 > 100 µM | SK-MEL-2 > 100 µM | T47D > 100 µM | NCI-H460 > 100 µM | OVCAR-3 > 100 µM | LOX IMVI 20.9 µM | HT-29 > 100 µM | SF-539 > 100 µM | IGROV-1 > 100 µM | M14 > 100 µM | HOP-92 > 100 µM | OVCAR-5 > 100 µM | UACC-257 70.5 µM | BT-549 > 100 µM

Oc1c(CN2CCOCC2)ccc(CN2CCOCC2)c1O
inactive: CCRF-CEM 3.62 µM | SF-268 30.9 µM | COLO 205 45.9 µM | HL-60 3.8 µM | Hs-578T > 100 µM | MCF7 35.2 µM | SK-MEL-2 29 µM | T47D 39.7 µM | NCI-H460 25.7 µM | OVCAR-3 21.2 µM | LOX IMVI 39 µM | HT-29 52.1 µM | SF-539 25.7 µM | IGROV-1 70.5 µM | M14 22.9 µM | HOP-92 > 100 µM | OVCAR-5 57 µM | UACC-257 27.2 µM | BT-549 81.3 µM

O=C1/C(=C/c2n[nH]cc2-c2ccc(Cl)cc2)C(=O)N(c2ccccc2)C1c1ccccc1 (stereo not given)
inactive: CCRF-CEM 17.6 µM | SF-268 13.7 µM | COLO 205 14.2 µM | HL-60 12.9 µM | Hs-578T 9.4 µM | MCF7 25.9 µM | SK-MEL-2 15.2 µM | T47D 1.69 µM | NCI-H460 26.4 µM | OVCAR-3 6.28 µM | LOX IMVI 14.3 µM | HT-29 12.3 µM | SF-539 22.3 µM | IGROV-1 16.6 µM | M14 12.9 µM | HOP-92 23.4 µM | UACC-257 19.7 µM | BT-549 14.6 µM

O=C(O)c1cscc1Cc1cccs1
inactive: CCRF-CEM > 100 µM | SF-268 > 100 µM | COLO 205 > 100 µM | HL-60 > 100 µM | Hs-578T > 100 µM | MCF7 > 100 µM | SK-MEL-2 > 100 µM | T47D > 100 µM | NCI-H460 > 100 µM | OVCAR-3 > 100 µM | LOX IMVI > 100 µM | HT-29 > 100 µM | SF-539 > 100 µM | IGROV-1 > 100 µM | M14 > 100 µM | HOP-92 > 100 µM | OVCAR-5 > 100 µM | UACC-257 > 100 µM | BT-549 > 100 µM
